Source: patent publication US20170189391A1, “Protein kinase C inhibitor for treating triple-negative breast cancer” (Macau University of Science ang Technology, priority 2015, published 2017)

Columns and labels:
[1] = tested on: all TNBC cell lines; experiment: Flow-cytometric analysis of cell cycle, all TNBC lines; assay type: cell-based, human; settings: upon chelerythrine treatment, 24 hours
Procedure: (§1) Four Non-TNBC cell lines and four TNBC cell lines as mentioned above were treated with chelerythrine (CHE, 5 μM) for 24 hours. […] Average values are calculated from three independent experiments (n=3). Data is shown as mean±SD.
(§2) Flow cytometric analyses were performed to define the cell cycle distribution […] after treatment with […] chelerythrine. Cells were harvested, washed twice with PBS, resuspended in 0.5 ml PBS (1,000,000˜2,000,000 cells/ml). Then 4 ml 70% ethanol was added and the mixture was kept at −20° C. for 2 hours to fix the cells. Cells were stained for total DNA content with a solution containing […] propidium iodide, 200 μg/ml DNase-free RNase A, and 0.1% triton X-100 in PBS for 30 minutes at room temperature. Cell cycle distribution was analyzed by flow cytometry (BD Bioscience). The percentages of the total cell population in the four different phases (Sub-G0/G1, G0/G1, S, G2/M) of cell cycle was determined using FlowJo software.

[2] = tested on: non-TNBC cells; experiment: Colony formation assay; assay type: cell-based, human; settings: treatment for 48 hours, chelerythrine 5 μM (FIG. 1C)
Procedure: (§3) Four non-triple-negative breast cancer (Non-TNBC) cell lines (MCF7, ZR-75-1, SK-BR-3 and MDA-MB-453) and four triple-negative breast cancer (TNBC) cell lines (MDA-MB-231, BT549, HCC1937 and MDA-MB-468) were used to determine the growth inhibition effect of chelerythrine. […] The cell number at each chelerythrine concentration is represented as a percentage of control (treatment without chelerythrine). Average values are calculated from three independent experiments performed in duplicate (n=3). […] The cell number at each time point is represented as a percentage of control (treatment without chelerythrine). Average values are calculated from three independent experiments performed in duplicate (n=3). […] Representative colony formation assay plates are shown, which are quantified by counting colony number (n=4). Data is shown as mean±SD. […] Cells were then washed with PBS, plated in drug-free medium in 6-well plates at densities of 2,000 cells/well and incubated for 7-10 days in the absence of drug. Colonies were stained with 0.2% (w/v) crystal violet in buffered formalin for 10 minutes. The number of colonies was counted.

[3] = tested on: TNBC cells; experiment: Colony formation assay; assay type: cell-based, human; settings: chelerythrine 5 μM (FIG. 1C)
Procedure: as §3

[4] = tested on: non-TNBC cells; experiment: Flow-cytometric analysis of cell cycle; assay type: cell-based, human; settings: chelerythrine 5 mM (so in the source), 24 hours
Procedure: as §1, §2

[5] = tested on: HCC1937; experiment: Flow-cytometric analysis of cell cycle; assay type: cell-based, human; settings: HCC1937, chelerythrine 5 mM (so in the source), 24 hours; 45.1% without treatment
Procedure: as §1, §2

[6] = tested on: MDA-MB-468; experiment: Flow-cytometric analysis of cell cycle; assay type: cell-based, human; settings: MDA-MB-468, chelerythrine 5 mM (so in the source), 24 hours
Procedure: as §1, §2

[7] = tested on: BT-549; experiment: Flow-cytometric analysis of cell cycle; assay type: cell-based, human; settings: BT-549, chelerythrine 5 mM (so in the source), 24 hours
Procedure: as §1, §2

[8] = tested on: MDA-MB-231; experiment: Flow-cytometric analysis of cell cycle; assay type: cell-based, human; settings: MDA-MB-231, chelerythrine 5 mM (so in the source), 24 hours
Procedure: as §1, §2

[9] = tested on: ZR-75-1; experiment: In vitro cell proliferation assay (SRB assay); assay type: cell-based, human; set-up: inhibitory effect at the highest concentration tested: dose or concentration left out as unconfirmed
Procedure: (§4) The anti-proliferative effects of tested agents on breast cancer cell lines were assessed by sulforhodamine B (SRB) colorimetric assay as previously described. Briefly, cells were seeded in 96-well plates in a volume of […] at densities of 5,000˜40,000 cells per well. After overnight incubation at 37° C. in a humidified incubator with 5% CO2, 100 ml medium containing agents (2 X indicated concentrations) were added. After 72-hour treatment, attached cells were fixed with 50 ml cold 50% (w/v) trichloroacetic acid (TCA) for 1 hour at 4° C. and then stained with 100 ml 0.4% (w/v) SRB. The absorbency at 515 nm was measured using SpectraMax 190 microplate reader (Molecular Devices) after solubilizing the protein-bound dye with 200 ml 10 mM Tris base solution (pH 10.5). The IC50 value was defined as the concentration required for a 50% reduction in cell growth.
(§5) To test in vitro anti-proliferative activity of chelerythrine on breast cancer cells, four TNBC cell lines (MDA-MB-231, BT-549, HCC1937 and MDA-MB-468) and four non-TNBC cell lines (MCF7, ZR-75-1, SK-BR-3 and MDA-MB-453) were treated with a series of chelerythrine concentrations ranging from […] for 72 hours. […] On the contrary, the tested non-TNBC cell lines were relatively resistant to chelerythrine treatment on compared with the TNBC cell lines.

[10] = tested on: MDA-MB-453; experiment: In vitro cell proliferation assay (SRB assay); assay type: cell-based, human; set-up: inhibitory effect at the highest concentration tested: dose or concentration left out as unconfirmed
Procedure: as §4, §5

[11] = tested on: non-TNBC cell lines (MCF7, ZR-75-1, SK-BR-3 and MDA-MB-453); experiment: In vitro cell proliferation assay (SRB assay), four non-TNBC lines together; assay type: cell-based, human
Procedure: as §4, §5

[12] = tested on: non-TNBC cells; experiment: Assessment of cell morphological changes (Hoechst 33258 staining); assay type: cell-based, human; settings: 24 hours
Procedure: (§6) Four Non-TNBC cell lines and four TNBC cell lines as mentioned above were treated with chelerythrine (CHE, 5 μM) for 24 hours. […] Reprehensive pictures are shown (400×). […] FIGS. 3C, 3D and 3E show the representative contour diagrams of FITC Annexin V/PI flow cytometry of cells. Fractions of apoptotic cells were quantified. Average values are calculated from three independent experiments (n=3). […] Apoptosis was analyzed by flow cytometry with Annexin V/PI staining. Representative contour diagrams and quantified data are shown. Average values are calculated from three independent experiments (n=3). Data is shown as mean±SD.
(§7) Cells were plated in 12-well plates (80,000-300,000 cells/well) and then treated with […] chelerythrine for 24 hours. After incubation, cells were collected, washed with PBS and stained with Hoechst 33258 (11.1 mg/ml) in buffered formalin solution containing 5.6% NP-40. Living and apoptotic cells were visualized through DAPI filter of fluorescence inverted microscope (Leica DM2500 Fluorescence Microscope) at ×400 magnification.

[13] = tested on: TNBC cells; experiment: as above; assay type: cell-based, human; settings: 24 hours
Procedure: as §6, §7

[14] = tested on: TNBC cell lines; experiment: Western blotting of cleaved PARP (cPARP); assay type: cell-based, human; settings: TNBC compared with non-TNBC cell lines, after chelerythrine treatment
Procedure: as §6
Protein samples were prepared by adding RIPA buffer with protease inhibitor cocktail (Roche) to cells and diluted in SDS-PAGE protein sample buffer. Samples were heated for 5 minutes at 95° C. before fractionation on SDS-polyacrylamide gels. The proteins were then transferred to Immobilon P (Millipore) and incubated with primary antibodies overnight at 4° C. The membranes were then washed with TBST and incubated with the appropriate horseradish peroxidase-conjugated secondary antibodies at room temperature. Proteins were visualized with SuperSignal West Dura Extended Duration Substrate or SuperSignal West Pico Chemiluminescent Substrate (Thermo Scientific).

[15] = tested on: four non-TNBC cell lines; experiment: Flow-cytometric analysis of apoptosis (Annexin V/PI); assay type: cell-based, human; settings: same treatment, 24 hours
Procedure: as §6
(§8) Cellular apoptosis was analyzed with BD Annexin V: Fitc Apoptosis Detection Kit I (BD Bioscience) by flow cytometry. Briefly cells were plated in 6-well plates (100,000˜400,000 cells/well) and treated with chelerythrine. At the indicated time point, cells were harvested, washed twice with cold PBS, and resuspended in 1X Binding Buffer at a concentration of 1,000,000 cells/ml. 100 μl cells were transferred to 1.5 ml conical tube and 5 μl FITC Annexin V and 5 μl propidium iodide were added. The mixture was gently vortexed and incubated at room temperature for 15 minutes in the dark, followed by adding 400 μl 1x Binding Buffer to each tube. Cells were filtered and analyzed by flow cytometry (BD Bioscience) within 1 hour. Total apoptotic cells (FITC Annexin V positive) were counted.

[16] = tested on: HCC1937; experiment: as above; assay type: cell-based, human; settings: HCC1937, 24 hours, chelerythrine 5 μM (FIG. 3)
Procedure: as §6, §8

[17] = tested on: MDA-MB-468; experiment: as above; assay type: cell-based, human; settings: MDA-MB-468, 24 hours, chelerythrine 5 μM (FIG. 3)
Procedure: as §6, §8

[18] = tested on: T-549; experiment: as above; assay type: cell-based, human; settings: T-549 (so in the source), 24 hours, chelerythrine 5 μM (FIG. 3)
Procedure: as §6, §8

[19] = tested on: MDA-MB-231; experiment: as above; assay type: cell-based, human; settings: MDA-MB-231, 24 hours, chelerythrine 5 μM (FIG. 3)
Procedure: as §6, §8

[20] = tested on: HCC1937; experiment: In vitro cell proliferation assay (SRB assay); assay type: cell-based; settings: Homo sapiens; HCC1937 (TNBC), 72-hour treatment
Procedure: as §4, §5

[21] = tested on: MDA-MB-468; experiment: In vitro cell proliferation assay (SRB assay); assay type: cell-based; settings: Homo sapiens; MDA-MB-468 (TNBC), 72-hour treatment
Procedure: as §4, §5

[22] = tested on: BT-549; experiment: In vitro cell proliferation assay (SRB assay); assay type: cell-based; settings: Homo sapiens; BT-549 (TNBC), 72-hour treatment
Procedure: as §4, §5

[23] = tested on: SK-BR-3; experiment: In vitro cell proliferation assay (SRB assay); assay type: cell-based; settings: Homo sapiens; SK-BR-3 (Non-TNBC), 72-hour treatment
Procedure: as §4, §5

[24] = tested on: MCF7; experiment: In vitro cell proliferation assay (SRB assay); assay type: cell-based; settings: Homo sapiens; MCF7 (Non-TNBC), 72-hour treatment
Procedure: as §4, §5

[25] = tested on: MDA-MB-231; experiment: In vitro cell proliferation assay (SRB assay); assay type: cell-based; settings: Homo sapiens; MDA-MB-231 (TNBC), 72-hour treatment
Procedure: as §4, §5

[26] = tested on: TNBC cell lines (MDA-MB-231, BT-549, HCC1937 and MDA-MB-468); experiment: In vitro cell proliferation assay (SRB assay), four TNBC lines together; assay type: cell-based, human; settings: for cell growth: 5 mM (so in the source) chelerythrine
Procedure: as §4, with “After 72-hour treatment, attached cells were fixed with 50 ml cold 50% (w/v) trichloroacetic acid (TCA) for 1 hour at 4° C. and then stained with 100 ml 0.4% (w/v) SRB.” left out
as §5

`COc1ccc2c(c[n+](C)c3c4cc5c(cc4ccc23)OCO5)c1OC` [chelerythrine] was tested, and the “nuclei with sub-G0/G1 DNA content characteristic of apoptosis” value [1] was “substantial proportion”, the colony formation ability [2] was “reserved largely of their colony formation ability” and the colony formation ability ([3]; treatment for 3 hours) was “dramatically decreased”. For the same compound, the Colony formation ([3]; treatment for 6 hours) was “almost no cells grew into colonies”, the cell cycle distribution [4] was “basically unchanged” and the “percentage of cells in G0/G1 phase” value [5] was 52.9%. The cell cycle arrest [6] was “marked cell cycle arrest at G2/M phase”, the cell cycle progression [7] was “no obvious changes” and the cell cycle progression [8] was “no obvious changes”. The IC50 ([9]; Homo sapiens, ZR-75-1 (Non-TNBC), 72-hour treatment) was over 10 µM, the “inhibitory effect at the highest concentration tested” value ([9]; ZR-75-1, highest concentration tested (so in the source), 72 hours) was “did not show any inhibitory effect” and the IC50 ([10]; Homo sapiens, MDA-MB-453 (Non-TNBC), 72-hour treatment) was over 10 µM. For the same compound, the “inhibitory effect at the highest concentration tested” value ([10]; MDA-MB-453, highest concentration tested, 72 hours) was “did not show any inhibitory effect”, the “inhibition of cell growth” value ([11]; 5 mM (so in the source) chelerythrine, each time point, versus TNBC lines) was “much less inhibition of cell growth” and the IC50 ([11]; Homo sapiens, 72 hours, read-out: IC50 values of all of the four non-TNBC cell lines) was over 10 µM. For the same compound, the apoptotic morphological changes [12] was “not in non-TNBC cells”, the apoptotic morphological changes [13] was “caused chromatin condensation and nuclear fragmentation” and the “cleaved nuclear poly (ADP-ribose) polymerase (cPARP), marker of apoptosis” value [14] was “detection of the cleaved nuclear poly (ADP-ribose) polymerase”. The “apoptosis induction / viability” value [15] was “remained viable”, the “mean percentages of apoptotic cells” value [16] was 22.2% and the “mean percentages of apoptotic cells” value [17] was 35.3%. The “mean percentages of apoptotic cells” value [18] was 51.0%, the “mean percentages of apoptotic cells” value [19] was 67.8% and the IC50 [20] was 3.6 µM. It also gave an IC50 [21] of 4.2 µM, an IC50 [22] of 2.6 µM and an IC50 [23] of over 10 µM. For the same compound, the IC50 [24] was over 10 µM, the IC50 [25] was 3 µM and the cell growth ([26]; 24 hour) was “significant reduction of cell growth”. The cell growth ([26]; 72 hour) was “almost died out” and the IC50 ([26]; Homo sapiens, range over MDA-MB-231, BT-549, HCC1937 and MDA-MB-468, 72 hours, read-out: IC50 values, growth of TNBC cell lines) was 2.6 to 4.2 µM.
